From patent US20120095059A1, “Compositions and Methods for Treating Type II Diabetes and Related Disorders” (priority 2010, published 2012)

Legend:
[1] = tested on: patients with type 2 diabetes; experiment: 12-week, double blind, randomized, parallel group, multi-center study of pioglitazone, glimepiride or their combination; type: in vivo, human; conditions: after 12 weeks, pioglitazone 15 mg per day, glimepiride 2 mg per day, or both; for HbA1c levels, change from baseline: baseline HbA1c greater than 8%
Procedure: Objective: […] Research Design and Methods: The study was a 12-week, double blind, randomized, parallel group, multi-center study, with 120 patients randomized to receive pioglitazone (15 mg per day), glimepiride (2 mg per day), or a combination of pioglitazone plus glimepiride (15 mg per day; 2 mg per day). Patients started a strict dietary regimen 1 week before receiving the first dose of each treatment. The study was open to patients with type 2 diabetes mellitus and having HbA1c levels greater than 8%. Patients were over 30 years of age and have had diabetes for at least 1 year.

[2] = tested on: patients with advanced type 2 diabetes; experiment: Predicted effect of adding metformin as a third agent, based upon a meta-analysis of metformin clinical trials; type: in vivo, human; conditions: metformin added as third agent to pioglitazone plus glimepiride
Source text: Patients having HbA1c levels greater than 7% have a high risk for developing cardiovascular disease and other complications of diabetes. Thus, in these patients, it is necessary to add a third agent to the regimen in order to obtain HbA1c values below 7%. Based upon a meta-analysis of metformin clinical trials, the addition of metformin as a third agent to this regimen will produce an additional reduction in HbA1c of about 1% and will contribute to adequate glycemic control in such patients with advanced type 2 diabetes. The addition of metformin in this triple therapy provides a synergistic mechanism of action, both improving insulin sensitivity and suppressing hepatic glucose output.

[3] = tested on: patients with type 2 diabetes mellitus; conditions: monotherapy; Rosenstock et al., Diabetes Care 25:1529-1533 (2002); cited from earlier work

In the case of `CCC1=C(C)CN(C(=O)NCCc2ccc(S(=O)(=O)NC(=O)N[C@H]3CC[C@H](C)CC3)cc2)C1=O` [glimepiride], the “fasting blood glucose, decrease from baseline” value [1] was -22 mg/dL and the “HbA1c levels, change from baseline” value [1] was −0.98%.

In the case of `CN(C)C(=N)N=C(N)N` [metformin], the “additional reduction in HbA1c” value [2] was “about 1%”.

In the case of `CC(C)[C@H]1CC[C@H](C(=O)N[C@H](Cc2ccccc2)C(=O)O)CC1` [nateglinide], the “reduction in HbA1c” value [3] is given as 0.6%.

In the case of `CCc1ccc(CCOc2ccc(CC3SC(=O)NC3=O)cc2)nc1` (stereo not drawn) [pioglitazone], the “fasting blood glucose, decrease from baseline” value [1] was -28 mg/dL and the “HbA1c levels, change from baseline” value [1] was −0.14%.
